# Target: T1, full-length ATR (Homo sapiens, UniProt Q13535)
# T1 construct: Assays were carried out at 25° C. in the presence of 5 nM full-length ATR
# Test: ATR Inhibition Assay (radioactive-phosphate incorporation)
# Format: biochemical
# Details: Ki(app); 5 nM full-length ATR, 10 μM [γ-33P]ATP, 800 μM target peptide, 25° C.
# Method: Compounds were screened for their ability to inhibit ATR kinase using a radioactive-phosphate incorporation assay. Assays were carried out in a mixture of 50 mM Tris/HCl (pH 7.5), 10 mM MgCl2 and 1 mM DTT. Final substrate concentrations were 10 μM [γ-33P]ATP (3mCi 33P ATP/mmol ATP, Perkin Elmer) and 800 μM target peptide (ASELPASQPQPFSAKKK).
# Assays were carried out at 25° C. in the presence of 5 nM full-length ATR. An assay stock buffer solution was prepared containing all of the reagents listed above, with the exception of ATP and the test compound of interest. 13.5 μL of the stock solution was placed in a 96 well plate followed by addition of 2 μL of DMSO stock containing serial dilutions of the test compound (typically starting from a final concentration of 15 μM with 3-fold serial dilutions) in duplicate (final DMSO concentration 7%). The plate was pre-incubated for 10 minutes at 25° C. and the reaction initiated by addition of 15 μL [γ-33P]ATP (final concentration 10 μM).
# The reaction was stopped after […] by the addition of 30 μL 0.1M phosphoric acid containing 2 mM ATP. A multiscreen phosphocellulose filter 96-well plate (Millipore, Cat no. MAPHN0B50) was pretreated with 100 μL 0.2M phosphoric acid prior to the addition of 45 μL of the stopped assay mixture. The plate was washed with 5×200 μL 0.2M phosphoric acid. After drying, 100 μL Optiphase ‘SuperMix’ liquid scintillation cocktail (Perkin Elmer) was added to the well prior to scintillation counting (1450 Microbeta Liquid Scintillation Counter, Wallac).
# After removing mean background values for all of the data points, Ki(app) data were calculated from non-linear regression analysis of the initial rate data using the Prism software package (GraphPad Prism version 3.0cx for Macintosh, GraphPad Software, San Diego Calif., USA).
# T1 sequence (Q13535 whole entry): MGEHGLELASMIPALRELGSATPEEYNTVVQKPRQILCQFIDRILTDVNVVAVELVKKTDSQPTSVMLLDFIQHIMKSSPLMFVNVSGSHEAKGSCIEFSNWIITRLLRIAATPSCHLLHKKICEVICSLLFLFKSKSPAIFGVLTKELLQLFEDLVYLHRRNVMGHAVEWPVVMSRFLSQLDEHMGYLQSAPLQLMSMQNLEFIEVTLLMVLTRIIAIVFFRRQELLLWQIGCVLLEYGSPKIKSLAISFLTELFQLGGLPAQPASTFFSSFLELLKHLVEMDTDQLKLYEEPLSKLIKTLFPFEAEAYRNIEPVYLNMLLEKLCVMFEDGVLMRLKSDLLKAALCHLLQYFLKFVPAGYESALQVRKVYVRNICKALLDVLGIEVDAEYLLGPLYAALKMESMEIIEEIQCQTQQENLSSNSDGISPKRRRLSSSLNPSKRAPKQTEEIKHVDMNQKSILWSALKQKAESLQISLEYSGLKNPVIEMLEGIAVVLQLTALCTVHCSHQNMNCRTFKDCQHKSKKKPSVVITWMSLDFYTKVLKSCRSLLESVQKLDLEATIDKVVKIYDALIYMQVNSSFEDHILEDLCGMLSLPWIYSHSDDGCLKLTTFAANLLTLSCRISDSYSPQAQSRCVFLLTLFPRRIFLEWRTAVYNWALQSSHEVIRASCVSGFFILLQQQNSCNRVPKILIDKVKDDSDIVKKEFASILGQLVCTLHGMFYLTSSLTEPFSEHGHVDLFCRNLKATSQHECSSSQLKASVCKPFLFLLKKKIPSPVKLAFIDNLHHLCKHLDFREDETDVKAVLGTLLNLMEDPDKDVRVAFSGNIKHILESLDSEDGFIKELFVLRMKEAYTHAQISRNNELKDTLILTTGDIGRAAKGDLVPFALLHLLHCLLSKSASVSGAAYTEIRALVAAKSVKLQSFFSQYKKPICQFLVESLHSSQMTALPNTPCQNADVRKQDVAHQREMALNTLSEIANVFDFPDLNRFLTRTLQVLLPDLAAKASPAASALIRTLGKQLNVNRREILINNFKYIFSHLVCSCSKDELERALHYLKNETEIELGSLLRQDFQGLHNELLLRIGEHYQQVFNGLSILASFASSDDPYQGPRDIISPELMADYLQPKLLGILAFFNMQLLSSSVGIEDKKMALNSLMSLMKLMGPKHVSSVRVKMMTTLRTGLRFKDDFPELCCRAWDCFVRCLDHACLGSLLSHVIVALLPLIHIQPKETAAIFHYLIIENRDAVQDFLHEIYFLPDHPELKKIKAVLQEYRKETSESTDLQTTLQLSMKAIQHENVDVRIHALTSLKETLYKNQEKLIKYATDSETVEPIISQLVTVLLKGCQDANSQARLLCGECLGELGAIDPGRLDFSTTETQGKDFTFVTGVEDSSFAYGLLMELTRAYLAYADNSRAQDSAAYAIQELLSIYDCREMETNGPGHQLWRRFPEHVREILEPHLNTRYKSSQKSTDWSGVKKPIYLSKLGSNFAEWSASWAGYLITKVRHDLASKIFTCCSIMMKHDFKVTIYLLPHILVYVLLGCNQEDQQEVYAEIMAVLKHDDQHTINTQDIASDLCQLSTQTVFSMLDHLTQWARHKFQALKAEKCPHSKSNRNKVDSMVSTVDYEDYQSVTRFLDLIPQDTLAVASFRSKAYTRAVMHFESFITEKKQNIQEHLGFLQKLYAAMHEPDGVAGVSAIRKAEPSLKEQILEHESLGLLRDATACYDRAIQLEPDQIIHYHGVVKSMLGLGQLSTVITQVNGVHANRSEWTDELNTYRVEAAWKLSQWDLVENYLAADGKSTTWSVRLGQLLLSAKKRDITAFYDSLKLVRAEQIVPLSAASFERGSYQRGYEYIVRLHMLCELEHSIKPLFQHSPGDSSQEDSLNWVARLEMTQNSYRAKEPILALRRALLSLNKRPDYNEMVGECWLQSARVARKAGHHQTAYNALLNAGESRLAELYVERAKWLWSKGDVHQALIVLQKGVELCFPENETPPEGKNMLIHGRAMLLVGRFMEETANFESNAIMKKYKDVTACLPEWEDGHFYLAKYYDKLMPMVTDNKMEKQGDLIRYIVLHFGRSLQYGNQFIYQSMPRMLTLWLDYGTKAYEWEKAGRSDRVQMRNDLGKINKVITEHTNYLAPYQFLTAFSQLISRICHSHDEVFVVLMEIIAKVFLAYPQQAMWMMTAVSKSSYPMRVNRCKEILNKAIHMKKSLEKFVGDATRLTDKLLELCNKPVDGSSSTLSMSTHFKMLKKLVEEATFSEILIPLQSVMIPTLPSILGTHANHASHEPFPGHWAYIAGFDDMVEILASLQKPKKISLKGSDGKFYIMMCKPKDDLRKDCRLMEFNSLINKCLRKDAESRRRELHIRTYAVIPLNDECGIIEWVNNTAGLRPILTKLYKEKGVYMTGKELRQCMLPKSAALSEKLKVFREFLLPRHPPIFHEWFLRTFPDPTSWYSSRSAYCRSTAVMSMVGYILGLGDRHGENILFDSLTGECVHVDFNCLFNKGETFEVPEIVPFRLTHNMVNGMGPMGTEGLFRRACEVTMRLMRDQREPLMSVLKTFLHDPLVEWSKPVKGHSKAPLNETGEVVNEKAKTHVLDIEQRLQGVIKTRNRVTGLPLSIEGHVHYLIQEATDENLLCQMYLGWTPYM
row,Compound,Ki
1,"CC(C)S(=O)(=O)c1ccc(-c2cnc3[nH]cc(NC(=O)c4ccc(OCCN(C)C)cc4)c3n2)cc1 [Compound I-29, 4-(2-dimethylaminoethyloxy)-N-[2-(4-isopropylsulfonylphenyl)-5H-pyrrolo[2,3-b]pyrazin-7-yl]benzamide]",≤ 10 nM
2,"CC(C)S(=O)(=O)c1ccc(-c2cnc3[nH]cc(NC(=O)c4ccc(NC5CNC5)cc4)c3n2)cc1 [Compound I-30, 4-(azetidin-3-ylamino)-N-[2-(4-isopropylsulfonylphenyl)-5H-pyrrolo[2,3-b]pyrazin-7-yl]benzamide]",≤ 10 nM
3,"Cc1ccsc1C(=O)Nc1c[nH]c2ncc(-c3ccc(S(=O)(=O)C(C)C)cc3)nc12 [Compound I-32, N-[2-(4-isopropylsulfonylphenyl)-5H-pyrrolo[2,3-b]pyrazin-7-yl]-3-methyl-thiophene-2-carboxamide]",≤ 10 nM
4,"CC(C)S(=O)(=O)c1ccc(-c2cnc3[nH]cc(NC(=O)c4cncs4)c3n2)cc1 [Compound I-34, N-[2-(4-isopropylsulfonylphenyl)-5H-pyrrolo[2,3-b]pyrazin-7-yl]thiazole-5-carboxamide]",10 to 100 nM
5,"CC(C)S(=O)(=O)c1ccc(-c2cnc3[nH]cc(NC(=O)C4CCOC4)c3n2)cc1 (stereo not shown) [Compound I-36, N-[2-(4-isopropylsulfonylphenyl)-5H-pyrrolo[2,3-b]pyrazin-7-yl]tetrahydrofuran-3-carboxamide]",100 to 500 nM
6,"CC(C)S(=O)(=O)c1ccc(-c2cnc3[nH]cc(NC(=O)CC#N)c3n2)cc1 [Compound I-37, 2-cyano-N-[2-(4-isopropylsulfonylphenyl)-5H-pyrrolo[2,3-b]pyrazin-7-yl]acetamide]",10 to 100 nM
7,"CC(C)S(=O)(=O)c1ccc(-c2cnc3[nH]cc(NC(=O)COc4ccccc4)c3n2)cc1 [Compound I-39, N-[2-(4-isopropylsulfonylphenyl)-5H-pyrrolo[2,3-b]pyrazin-7-yl]-2-phenoxy-acetamide]",100 to 500 nM
8,"CC(C)S(=O)(=O)c1ccc(-c2cnc3[nH]cc(NC(=O)c4ccc(N5CCC[C@H](N)C5)cc4)c3n2)cc1 [Compound I-42, 4-[(3S)-3-amino-1-piperidyl]-N-[2-(4-isopropylsulfonylphenyl)-5H-pyrrolo[2,3-b]pyrazin-7-yl]benzamide]",10 to 100 nM
9,"CC(C)S(=O)(=O)c1ccc(-c2cnc3[nH]cc(NC(=O)Nc4ccccc4)c3n2)cc1 [Compound I-43, 1-[2-(4-isopropylsulfonylphenyl)-5H-pyrrolo[2,3-b]pyrazin-7-yl]-3-phenyl-urea]",10 to 100 nM

# The next lines start with the values.
row,Ki,Compound
1,≤ 10 nM,"CC(C)S(=O)(=O)c1ccc(-c2cnc3[nH]cc(NC(=O)c4ccc(C5CCCN5)cc4)c3n2)cc1 (stereo not shown) [Compound I-28, N-[2-(4-isopropylsulfonylphenyl)-5H-pyrrolo[2,3-b]pyrazin-7-yl]-4-pyrrolidin-2-yl-benzamide]"
2,10 to 100 nM,"COc1cccc(C(=O)Nc2c[nH]c3ncc(-c4ccc(S(=O)(=O)C(C)C)cc4)nc23)n1 [Compound I-31, N-[2-(4-isopropylsulfonylphenyl)-5H-pyrrolo[2,3-b]pyrazin-7-yl]-6-methoxy-pyridine-2-carboxamide]"
3,10 to 100 nM,"CC(C)S(=O)(=O)c1ccc(-c2cnc3[nH]cc(NC(=O)CC4CC4)c3n2)cc1 [Compound I-33, 2-cyclopropyl-N-[2-(4-isopropylsulfonylphenyl)-5H-pyrrolo[2,3-b]pyrazin-7-yl]acetamide]"
4,10 to 100 nM,"CC(C)S(=O)(=O)c1ccc(-c2cnc3[nH]cc(NC(=O)C4CCNCC4)c3n2)cc1 [Compound I-35, N-[2-(4-isopropylsulfonylphenyl)-5H-pyrrolo[2,3-b]pyrazin-7-yl]piperidine-4-carboxamide]"
5,10 to 100 nM,"CC(C)S(=O)(=O)c1ccc(-c2cnc3[nH]cc(NC(=O)Cc4nnn[nH]4)c3n2)cc1 [Compound I-38, N-[2-(4-isopropylsulfonylphenyl)-5H-pyrrolo[2,3-b]pyrazin-7-yl]-2-(1H-tetrazol-5-yl)acetamide]"
6,10 to 100 nM,"CC(C)S(=O)(=O)c1ccc(-c2cnc3[nH]cc(NC(=O)c4ccccn4)c3n2)cc1 [Compound I-40, N-[2-(4-isopropylsulfonylphenyl)-5H-pyrrolo[2,3-b]pyrazin-7-yl]pyridine-2-carboxamide]"
7,≤ 10 nM,"CC(C)S(=O)(=O)c1ccc(-c2cnc3[nH]cc(NC(=O)c4ccc(N5CC[C@@H](N)C5)cc4)c3n2)cc1 [Compound I-41, 4-[(3R)-3-aminopyrrolidin-1-yl]-N-[2-(4-isopropylsulfonylphenyl)-5H-pyrrolo[2,3-b]pyrazin-7-yl]benzamide]"
